Experimental data published in patent US20250120988A1, “SMALL MOLECULE COMPOUND FOR TREATING ISCHEMIC STROKE, ITS PREPARATION METHOD, AND APPLICATION” (SHANGHAI SIXTH PEOPLE'S HOSPITAL, priority 2023, published 2025).

Columns and labels:
primary cortical neurons [1] = assay: LDH release from cultured neurons after OGD; type: cell-based, mice; details: 10 μM, OGD 1 hour, pH 7.0
Protocol: (§1) Figure a illustrates cortical neurons staining from wild-type (ASIC1a+/+) and gene-deficient (ASIC1a−/−) mice primary cultures in the calcein-PI staining experiment. Blue green represents viable cells, and red represents dead cell nuclei. 10 μM CGS19755 and 10 μM LK-2 were added respectively in the cell culture medium under pH 7.0 conditions with OGD to be treated for 1 hour. Figure c illustrates, after being treated in the same experimental groups as Figure a, the analysis of each group of LDH of relative release levels. Figure d illustrates PI staining of ASIC1a-transfected CHO cells after 1 hour of treatment with pH 7.0 and 500 μM glutamate (Glu). Green represents green fluorescent protein (GFP), indicating ASIC1a-expressing CHO cells (GFP+), and red represents dead cell nuclei. The concentration of LK-2 was 10 μM. GFP-indicates ASIC1a-untransfected cells. […]
The LDH assay kit (Biyuntian) was used to measure the release of LDH from cultured neurons after 1 hour of oxygen-glucose deprivation (OGD). […] The absorbance of the target was measured at 490 nm wavelength using a spectrophotometer (Thermo Scientific), while the background absorbance was measured at 620 nm wavelength. […]

primary cortical neurons [2] = assay: Calcein-PI cell death staining of primary neurons under oxygen-glucose deprivation (OGD); type: cell-based, mice; details: 10 μM; primary cultured neurons; OGD 1 hour, pH 7.0
Protocol: as §1, with “(Glu).” for “(Glu). Green represents green fluorescent protein (GFP), indicating ASIC1a-expressing CHO cells (GFP+), and red represents dead cell nuclei. The concentration of LK-2 was 10 μM. GFP-indicates ASIC1a-untransfected cells.”
Taking into consideration that in addition to ASIC1a, neurons also express multiple membrane proteins that can be activated and lead to cell death during OGD, in order to more accurately verify that cell death is caused by glutamate activation of ASIC1a and that LK-2 indeed competitively antagonizes the glutamate so as to reduce cell death, we conducted the following experiment: CHO cells transfected with ASIC1a-GFP were divided into a control group (500 μM glutamate) and a drug intervention group (500 μM glutamate+10 μM LK-2). […] Live and dead cell nuclei were determined by observing under a 40× objective using excitation wavelengths of 488 nm and 546 nm. The number of stained cell nuclei was counted using Image-J software.

O=C(O)C1CN(C(c2ccccc2)P(=O)(O)O)CCN1 (centres unmarked) [LK-2]
reduction of lactate dehydrogenase release (primary cortical neurons [1]): 50% | reduction of cell death rate (primary cortical neurons [2]): 87%
